Earlier results on three molecules are cited in patent US20210040357A1, “ELECTROCONDUCTIVE ADHESIVE COMPOSITION, CURED PRODUCT OF ELECTROCONDUCTIVE ADHESIVE, AND ELECTRONIC DEVICE” (TANAKA KIKINZOKU KOGYO K.K., priority 2018, published 2021).

In the case of `CC(C)C1=CC2=CC[C@@H]3[C@](C)(CCC[C@@]3(C)C(=O)O)[C@H]2CC1` [Abietic acid], the “Acid dissociation constant pKa” value is given as 4.64.

Turning to `CCCCCCCCCCCCCCCCCC(=O)O` [Stearic acid], the “Acid dissociation constant pKa” value was “about 5.0”.

`CCCCCCCC/C=C\CCCCCCCC(=O)O` [oleic acid]: the “Acid dissociation constant pKa” value is recorded as “about 5.0”.
